The subject of series [1] is apple leaf cuticles. In words: Penetration of Flufenacet through isolated apple leaf cuticles in the presence of test substances. The conditions noted are these: for Mean penetration for Flufenacet after time: Flufenacet 0.75 g/L in spray liquid, 10° C./61% rel. air humidity. The text has this:
(§1) Surfactants can affect the absorption of (active) ingredients through membranes such as skin, films or the plant cuticle. As a “finite-dose” application, it is known for the single administration or application of a solution, cream, gel etc. to a membrane that the absorption of active ingredient can be influenced by some additives such as surfactants even after wetting.
The principle of the method has been published and described in detail e.g. in WO-A-2005/194844 or WO2017211572 A1). The leaf cuticles were enzymatically isolated in the manner described in the literature from apple leaves of orchard trees in a commercial stone fruit growing facility near Frankfurt am Main in 2017. The stomata-free cuticles were first dried under air and then installed into stainless steel diffusion cells. After application to the original upper side of the leaf and evaporation of the test liquid, i.e. of the spray liquids of the active ingredients with or without the inventive substances or comparative compositions, the diffusion cells were transferred into thermostated blocks and charged with aqueous liquid. The water used to make up the aqueous test liquids was local tap water (of known composition). At regular intervals, aliquot samples were taken and the proportion of active ingredient penetrated was determined by HPLC or alternatively by radio-chemical method where radio-labelled active ingredient was used as tracer to determine the concentration. During the experiment, the temperature in the system (block, diffusion cells, liquids, etc.) and the air humidity above the spray deposit on the cuticle were controlled. […] The analytical determination by means of HPLC (1290 Infinity, Agilent) was effected thereafter with a Kinetex column 30×2, 1 mm, 2.6μ C18 100 A (Phenomenex), taking a 20 μL aliquot as injection volume at the specified times. In each case, the geometric mean values of the penetration for intact membranes at the mean measurement times are given.

For series [2], the system named is apple leaf cuticles. In words: Penetration of Mesotrione through isolated apple leaf cuticles in the presence of test substances.
From the text: as §1
The principle of the method has been published and described in detail e.g. in WO-A-2005/194844 or WO2017211572 A1). The leaf cuticles were enzymatically isolated in the manner described in the literature from apple leaves of orchard trees in a commercial stone fruit growing facility near Frankfurt am Main in 2017. The stomata-free cuticles were first dried under air and then installed into stainless steel diffusion cells. After application to the original upper side of the leaf and evaporation of the test liquid, i.e. of the spray liquids of the active ingredients with or without the inventive substances or comparative compositions, the diffusion cells were transferred into thermostated blocks and charged with aqueous liquid. The water used to make up the aqueous test liquids was local tap water (of known composition). At regular intervals, aliquot samples were taken and the proportion of active ingredient penetrated was determined by HPLC or alternatively by radio-chemical method where radio-labelled active ingredient was used as tracer to determine the concentration. During the experiment, the temperature in the system (block, diffusion cells, liquids, etc.) and the air humidity above the spray deposit on the cuticle were controlled. In the experiment, relative air humidity was constant throughout at 56% relative air humidity (air over supersaturated calcium nitrate) at a constant 10° C. or 25° C. The analytical determination by means of HPLC (1290 Infinity, Agilent) was effected thereafter with a Kinetex column 30×2, 1 mm, 2.6μ C18 100 A (Phenomenex), taking a 20 μL aliquot as injection volume at the specified times. […]

On to `CCCCCCCCC(=O)OCCOCCOCCOCCOCCOCCOC` [A1, Pelargonic acid 6 EO ester methyl ether], for which the “Mean penetration for Flufenacet after time” value with apple leaf cuticles [1] (test substance 1.0 g/L, 1 day) stood at 10.7%; with apple leaf cuticles [1] (test substance 1.0 g/L, 2 days) it was 16.9%; with apple leaf cuticles [1] (test substance 10 g/L, 1 day), 18.2%; with apple leaf cuticles [1] (test substance 10 g/L, 2 days) it was 28.0%. Besides, the “uptake of the active ingredient (Flufenacet), in words” value in the series on apple leaf cuticles [1] (summary of Table 4, compared to the commercial formulation) is listed as “strongly increases the uptake”. Besides, the “uptake of the active ingredient (Mesotrione), in words” value with apple leaf cuticles [2] is “increases the uptake”.

The values are drawn from patent US20220183282A1, “Fatty Acid Derivatives For Improving The Effect Of Agrochemical Actives” (priority 2019, published 2022).
